Experiments:
Type in all cases: in vivo, human
[1] = Sensory evaluation of chicken soups with and without the compound; conditions: compound added at 2 g/L; chicken base powder 6 g and 1 g monosodium glutamate in 500 mL hot water; 12 panelists
Description: Chicken soups were prepared by dissolving 6 g chicken base powder (detailed recipe shown in Table 3) and 1 g monosodium glutamate in 500 mL hot water. 1-Deoxy-D-fructosyl-N-β-alanyl-L-histidine or alternatively 1-deoxy-D-fructosyl-N-β-alanyl-N-methyl-L-histidine was added at 2 g/L.
The sensory evaluation was carried out by 12 panelists, previously screened for their sensory abilities. The panelists were asked to taste a set of 2 chicken soups, one containing no 1-deoxy-D-fructosyl-N-β-alanyl-L-histidine and one containing 1-deoxy-D-fructosyl-N-β-alanyl-L-histidine (2 g/L). If sensory differences were observed, the panelists were asked to describe them.
The same sensory evaluation was carried out with the chicken soup samples with and without containing 1-deoxy-D-fructosyl-N-β-alanyl-N-methyl-L-histidine at 2 g/L broth.

[2] = Sensory evaluation of tomato soups with and without the compound; conditions: compound added at 2 g/L; 6 g tomato base powder in 500 mL hot water
Description: 1-Deoxy-D-fructosyl-N-β-alanyl-L-histidine or alternatively 1-deoxy-D-fructosyl-N-β-alanyl-N-methyl-L-histidine was added at 2 g/L to the soups.

[3] = Taste threshold concentration in model broth, three-alternative test by sensory panel; conditions: thick-sour sensation and white-meaty oral impression, value in brackets
Description: The sensory tests were performed in a sensory panel room at 20-25° C. To avoid a retro-nasal aroma or taste impression, nose clips were used. The sensory panel consisted of 8 to 14 trained persons. The panel was trained to evaluate the taste of aqueous solutions (1 mL each) of the following standard taste compounds by using a triangle test: saccharose (50 mmol/L) and L-alanine (15 mmol/L), respectively, for sweet taste; lactic acid (20 mmol/L) for sour taste; NaCl (12 mmol/L) for salty taste; caffeine (1 mmol/L) and quinine hydrochloride (0.05 mmol/L), respectively, for bitter taste; sodium glutamate (8 mmol/L, pH 5.7) for umami taste; and tannin (0.05%) for astringency. The “white meaty” oral sensations was assessed in a model broth solution prepared from monosodium glutamate monohydrate (1.9 g/L), yeast extract (2.1 g/L), maltodextrin (6.375 g/L) and sodium chloride (2.9 g/L) in bottled water (pH 5.9).
The taste threshold concentration of β-alanyl-L-histidine was determined in the model broth using a three-alternative test with two blanks and one sample in ascending concentrations of β-alanyl-L-histidine.
This taste threshold value is considerably lower than the 22′700 μmol/L (5.3 mg/g) threshold level determined for the corresponding β-alanyl-L-histidine under the same experimental model system (see Example 5). […]

Compound	sensory panel conclusion on flavour of chicken soup [1]	sensory panel conclusion on flavour of tomato soup [2]	taste threshold concentration [3] [mg/g]
Cn1cncc1C[C@H](NC(=O)CCNCC(=O)[C@@H](O)[C@H](O)[C@H](O)CO)C(=O)O [1-deoxy-D-fructosyl-N-β-alanyl-N-methyl-L-histidine]	significantly increased the boiled chicken and meaty flavours	increased significantly the savory, spicy notes	
NCCC(=O)N[C@@H](Cc1c[nH]cn1)C(=O)O [β-alanyl-L-histidine]			5.3
